Eight compounds from article PMC12670426 (Journal of Medicinal Chemistry, 2025) can be followed below.

Assay [1] deals with T1, human galectin-1 (Gal-1, full length) (Homo sapiens, UniProt P09382).
T1 construct: Gal-1 is a prototype galectin consisting of a single CRD and was used in full length; 6xHis tag with TEV protease site (N, cleaved yes); made in house; host or cells: BL21 Escherichia coli (pET-15b)
Kind of assay: Competitive fluorescence polarization assay, Gal-1. Format: binding. As to the method:
(§1) Our investigation of the structure–activity relationship of N-aryl-N-lactosylamides started with an initial screening of substituted acetanilides (Table ). These compounds can be readily synthesized from a wide range of commercially available substituted anilines. Affinity was evaluated using a fluorescence polarization assay, which enables reliable determination of dissociation constants (K d) between small molecules and galectins. All inhibitors in this series were tested against the two most common human galectins: Gal-1 and Gal-3. Gal-1 is a prototype galectin consisting of a single CRD and was used in full length. In the case of Gal-3, which consists of the C-terminal CRD and N-terminal unfolded region, only the C-terminal domain was used (Gal-3C). Affinities were compared to methyl β-lactoside (β-LacOMe) as a baseline.
(§2) Fluorescence polarization experiments for determining inhibitor affinities were performed using the same instrumentation and settings as described for the direct binding experiments. […] The galectin–probe mixture was subsequently added using a Certus Flex liquid handler (Fritz Gyger AG, Switzerland) to reach a final volume of 5 μL. Anisotropy was measured after 30–60 min incubation at 25 °C. Inhibitor dissociation constants (K d) were calculated using Wang’s exact cubic model for competitive binding implemented in the BindCurve package. Protein and probe concentrations used in these competitive experiments are provided in the Supporting Information.
(§3) Competitive binding was modeled by Wang’s exact cubic model,3 which is written as […]
(§4) r = rmin + (rmax − rmin) 3 (6) […]
(§5) where r, rmin and rmax have the same meaning as in Equation 1. The coefficients a, b, and c are […]
(§6) a = Kd∗ + Kd + [L∗]T + [L]T − [R]T (7) b = Kd∗([L]T − [R]T) + Kd([L∗]T − [R]T) + Kd∗ Kd (8) […]
(§7) where Kd∗ is the dissociation constant of the probe, Kd is the dissociation constant of the […]
(§8) the unlabeled ligand, and [R]T is the total concentration of the receptor. The angle θ is defined […]
(§9) In the competitive binding experiments, the values of [L∗]T, [R]T and Kd∗ are known and [L]T is titrated. The values of minimal and maximal anisotropy rmin and rmax were fixed during fitting at the values of the minimal and maximal asymptotes obtained from the direct binding experiments. The value of Kd was calculated as the only unfixed parameter in the model.
(§10) Experimental constants used for the competitive fluorescence polarization experiments are […]
(§11) Table S2. Experimental constants used for competitive fluorescence polarization experiments. […]

For assay [2], the target named is T2, human galectin-3C (Gal-3C, C-terminal CRD of galectin-3) (Homo sapiens, UniProt P17931).
T2 construct: only the C-terminal domain was used (Gal-3C); 6xHis tag with TEV protease site (N, cleaved yes); made in house; host or cells: BL21 Escherichia coli (pET-15b)
The assay can be described thus: Competitive fluorescence polarization assay, Gal-3C. Format: binding. The procedure: as §1, §2, §3, §4, §5, §6, §7, §8, §9, §10, §11
(In fluorescence polarisation assays a small probe gives low polarisation when free and higher when bound to something large.)

The mark [3] stands for this setting: CSV supplement, unrounded mean, read-out: Gal1_IC50_mean_uM.
Where [4] appears, read: CSV supplement, unrounded mean, read-out: Gal1_Kd_mean_uM.
[5] abbreviates: competitive fluorescence polarization, mean ± SD, read-out: Kd Gal-1.
[6] abbreviates: four-parameter logistic model, mean ± SD, read-out: IC50 Gal-1.
Where [7] appears, read: CSV supplement, unrounded mean, read-out: Gal3C_IC50_mean_uM.
[8] abbreviates: CSV supplement, unrounded mean, read-out: Gal3C_Kd_mean_uM.
Setting [9] is: competitive fluorescence polarization, mean ± SD, read-out: Kd Gal-3C.
The mark [10] stands for this setting: four-parameter logistic model, mean ± SD, read-out: IC50 Gal-3C.

Read-outs that look alike come from different tables or passages of the source.

T1 sequence (P09382 2-135): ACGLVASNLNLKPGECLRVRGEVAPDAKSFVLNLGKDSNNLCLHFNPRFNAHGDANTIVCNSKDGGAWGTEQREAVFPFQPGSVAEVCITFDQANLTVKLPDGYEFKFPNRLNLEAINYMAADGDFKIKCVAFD
T2 sequence (P17931 118-248 limits assumed): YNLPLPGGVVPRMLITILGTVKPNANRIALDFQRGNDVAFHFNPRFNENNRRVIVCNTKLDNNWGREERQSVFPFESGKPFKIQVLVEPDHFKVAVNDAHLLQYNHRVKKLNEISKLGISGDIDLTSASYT

For the compound `O=C(O)c1cccc(N(C(=O)c2ccccc2)[C@@H]2O[C@H](CO)[C@@H](O[C@@H]3O[C@H](CO)[C@H](O)[C@H](O)[C@H]3O)[C@H](O)[C@H]2O)c1` [Compound 3t, N-[4-O-(β-D-Galactopyranosyl)-β-D-glucopyranosyl]-N-(3-carboxyphenyl)benzamide], the IC50 was determined as 1310 µM in assay [1] (setting [3]), 1300 ± 30 µM in assay [1] (setting [6]), 120 µM in assay [2] (setting [7]) and 120 ± 9 µM in assay [2] (setting [10]). Also, the Kd in assay [1] (setting [4]) worked out at 841 µM; in assay [1] (setting [5]), 840 ± 80 µM; in assay [2] (setting [8]), 51.3 µM; in assay [2] (setting [9]), 51 ± 10 µM.
Take `O=C(O)c1cccc(N(C(=O)Cc2ccccc2)[C@@H]2O[C@H](CO)[C@@H](O[C@@H]3O[C@H](CO)[C@H](O)[C@H](O)[C@H]3O)[C@H](O)[C@H]2O)c1` [Compound 3u, N-[4-O-(β-D-Galactopyranosyl)-β-D-glucopyranosyl]-N-(3-carboxyphenyl)-2-phenylacetamide]: the IC50 in assay [1] (setting [3]) turned out to be 2150 µM; in assay [1] (setting [6]) it was 2100 ± 800 µM; in assay [2] (setting [7]), 133 µM; in assay [2] (setting [10]), 130 ± 20 µM. Further, the Kd in assay [1] (setting [4]) is 1240 µM; in assay [1] (setting [5]) it was 1200 ± 10 µM; in assay [2] (setting [8]) it was 53.6 µM; in assay [2] (setting [9]), 54 ± 6 µM.
Take `COC(=O)c1cccc(N(C(C)=O)[C@@H]2O[C@H](CO)[C@@H](O[C@@H]3O[C@H](CO)[C@H](O)[C@H](O)[C@H]3O)[C@H](O)[C@H]2O)c1` [Compound 3v, N-[4-O-(β-D-Galactopyranosyl)-β-D-glucopyranosyl]-N-[3-(methylcarboxy)phenyl]acetamide]: the IC50 came out at 655 µM in assay [1] (setting [3]), 660 ± 100 µM in assay [1] (setting [6]), 241 µM in assay [2] (setting [7]) and 240 ± 30 µM in assay [2] (setting [10]). Moreover, the Kd in assay [1] (setting [4]) amounted to 432 µM; in assay [1] (setting [5]), 430 ± 30 µM; in assay [2] (setting [8]), 94.6 µM; in assay [2] (setting [9]), 95 ± 40 µM.
As to `CNC(=O)c1cccc(N(C(C)=O)[C@@H]2O[C@H](CO)[C@@H](O[C@@H]3O[C@H](CO)[C@H](O)[C@H](O)[C@H]3O)[C@H](O)[C@H]2O)c1` [Compound 3w, N-[4-O-(β-D-Galactopyranosyl)-β-D-glucopyranosyl]-N-[3-(methylcarbamoyl)phenyl]acetamide], the IC50 in assay [1] (setting [3]) stood at 666 µM; in assay [1] (setting [6]) it was 670 ± 90 µM; in assay [2] (setting [7]), 220 µM; in assay [2] (setting [10]), 220 ± 6 µM. Further, the Kd in assay [1] (setting [4]) is 445 µM; in assay [1] (setting [5]) it was 440 ± 100 µM; in assay [2] (setting [8]) it was 88.1 µM; in assay [2] (setting [9]) it was 88 ± 20 µM.
`CC(=O)N(c1cccc(CO)c1)[C@@H]1O[C@H](CO)[C@@H](O[C@@H]2O[C@H](CO)[C@H](O)[C@H](O)[C@H]2O)[C@H](O)[C@H]1O` [Compound 3x, N-[4-O-(β-D-Galactopyranosyl)-β-D-glucopyranosyl]-N-[3-(hydroxymethyl)phenyl]acetamide]: the IC50 in assay [1] (setting [3]) was determined as 842 µM; in assay [1] (setting [6]), 840 ± 90 µM; in assay [2] (setting [7]) it was 273 µM; in assay [2] (setting [10]), 270 ± 0.9 µM. For the same compound, the Kd in assay [1] (setting [4]) stood at 542 µM; in assay [1] (setting [5]), 540 ± 60 µM; in assay [2] (setting [8]), 106 µM; in assay [2] (setting [9]), 110 ± 30 µM. In addition, the “decrease of affinity toward Gal-3C compared to 3r” value in assay [2] (compared to 3r) came to 2 fold.
As to `CC(=O)N(c1cccc(-c2nnn[nH]2)c1)[C@@H]1O[C@H](CO)[C@@H](O[C@@H]2O[C@H](CO)[C@H](O)[C@H](O)[C@H]2O)[C@H](O)[C@H]1O` [Compound 3y, N-[4-O-(β-D-Galactopyranosyl)-β-D-glucopyranosyl]-N-[3-(1H-tetrazol-5-yl)phenyl]acetamide], the IC50 is 1260 µM in assay [1] (setting [3]), 1300 ± 100 µM in assay [1] (setting [6]), 123 µM in assay [2] (setting [7]) and 120 ± 9 µM in assay [2] (setting [10]). In addition, the Kd was 812 µM in assay [1] (setting [4]), 810 ± 200 µM in assay [1] (setting [5]), 48.8 µM in assay [2] (setting [8]) and 49 ± 20 µM in assay [2] (setting [9]).
As for `CC(=O)N(c1cccc(-c2ccc(C)o2)c1)[C@@H]1O[C@H](CO)[C@@H](O[C@@H]2O[C@H](CO)[C@H](O)[C@H](O)[C@H]2O)[C@H](O)[C@H]1O` [Compound 3z, N-[4-O-(β-D-Galactopyranosyl)-β-D-glucopyranosyl]-N-[3-(5-methylfuran-2-yl)phenyl]acetamide], the IC50 is 860 µM in assay [1] (setting [3]), 860 ± 100 µM in assay [1] (setting [6]), 327 µM in assay [2] (setting [7]) and 330 ± 1 µM in assay [2] (setting [10]). The Kd in assay [1] (setting [4]) was found to be 558 µM; in assay [1] (setting [5]), 560 ± 80 µM; in assay [2] (setting [8]), 121 µM; in assay [2] (setting [9]), 120 ± 30 µM.
As to `CO[C@@H]1O[C@H](CO)[C@@H](O[C@@H]2O[C@H](CO)[C@H](O)[C@H](O)[C@H]2O)[C@H](O)[C@H]1O` [β-LacOMe, methyl β-lactoside, reference compound], the IC50 is 1640 µM in assay [1] (setting [3]), 1600 ± 70 µM in assay [1] (setting [6]), 756 µM in assay [2] (setting [7]) and 760 ± 90 µM in assay [2] (setting [10]). Moreover, the Kd was found to be 770 µM in assay [1] (setting [4]), 770 ± 200 µM in assay [1] (setting [5]), 234 µM in assay [2] (setting [8]) and 230 ± 20 µM in assay [2] (setting [9]).
